Measured values as given in patent publication US11261186B2, “Biaryl derivative as GPR120 agonist” (LG CHEM, LTD., priority 2014, dated 2022).

Biological target: T1, hGPR120 (Homo sapiens, UniProt Q5NUL3)
T1 construct: expressed in transfected cells; host or cells: CHO-K1
T1 sequence (Q5NUL3 1-361): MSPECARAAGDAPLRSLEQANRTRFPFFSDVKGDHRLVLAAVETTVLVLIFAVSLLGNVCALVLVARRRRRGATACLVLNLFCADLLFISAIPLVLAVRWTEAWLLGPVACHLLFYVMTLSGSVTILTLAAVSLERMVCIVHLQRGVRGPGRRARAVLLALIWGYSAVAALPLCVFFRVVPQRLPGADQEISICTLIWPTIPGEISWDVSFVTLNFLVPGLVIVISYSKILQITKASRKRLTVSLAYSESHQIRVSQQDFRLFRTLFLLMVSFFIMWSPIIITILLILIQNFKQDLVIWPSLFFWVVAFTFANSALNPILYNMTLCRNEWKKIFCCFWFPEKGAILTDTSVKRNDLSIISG
Assay: Measurement of Activity of GPR120 Agonist (Cell-Based Assay), Calcium 5 dye fluorescence
Conditions: CHO-K1 cells expressing Ga16 and hGPR120
Method in brief: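 CHO-K1 cells co-expressing Gα16 and hGPR120 were seeded, cultured 18 h at 37 °C, then loaded 1 h with Calcium 5 dye. Serially diluted agonists (final 0.5% DMSO) were added and fluorescence read at Ex 485/Em 525 nm, expressed as percent relative to 1% DMSO-only wells.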

| SMILES | EC50 [nM] |
| --- | --- |
| Cc1cc(Oc2ccc(C(F)(F)F)cc2)nc(-c2cc(F)c(N3CCC(CC(=O)O)CC3)c(F)c2)n1 [Example 612, 2-[1-[2,6-difluoro-4-[4-methyl-6-[4-(trifluoromethyl)phenoxy]pyrimidin-2-yl]phenyl]-4-piperidyl]acetic acid] | 2000 to 20000 |
| Cc1cc(Oc2cccc(C(F)(F)F)c2)nc(-c2cc(F)c(N3CCC(CC(=O)O)CC3)c(F)c2)n1 [Example 613, 2-[1-[2,6-difluoro-4-[4-methyl-6-[3-(trifluoromethyl)phenoxy]pyrimidin-2-yl]phenyl]-4-piperidyl]acetic acid] | 2000 to 20000 |
| O=C(O)CC1CCN(c2c(F)cc(-c3cc(C(F)(F)F)cc(OC4CCC4)n3)cc2F)CC1 [Example 614, {1-[4-(6-cyclobutoxy-4-trifluoromethyl-pyridin-2-yl)-2,6-difluoro-phenyl]-piperidin-4-yl}-acetic acid] | 2000 to 20000 |
| O=C(O)CC1CCN(c2c(F)cc(-c3cccc4sc(-c5ccc(F)cc5)cc34)cc2F)CC1 [Example 615, (1-{2,6-difluoro-4-[2-(4-fluoro-phenyl)-benzo[b]thiophen-4-yl]-phenyl}-piperidin-4-yl)-acetic acid] | 2000 to 20000 |
| Cc1cccc(-c2cc3c(-c4cc(F)c(N5CCC(CC(=O)O)CC5)c(F)c4)cccc3s2)c1 [Example 616, {1-[2,6-difluoro-4-(2-m-tolyl-benzo[b]thiophen-4-yl)-phenyl]-piperidin-4-yl}-acetic acid] | 200 to 2000 |
| O=C(O)CC1CCN(c2c(F)cc(-c3nc(OC4CCC4)cc(C(F)(F)F)n3)cc2F)CC1 [Example 617, {1-[4-(4-cyclobutoxy-6-trifluoromethyl-pyrimidin-2-yl)-2,6-difluoro-phenyl]-piperidin-4-yl}-acetic acid] | > 20000 |
| CCCOc1cc(C(F)(F)F)nc(-c2cc(F)c(N3CCC(CC(=O)O)CC3)c(F)c2)n1 [Example 618, {1-[2,6-difluoro-4-(4-propoxy-6-trifluoromethyl-pyrimidin-2-yl)-phenyl]-piperidin-4-yl}-acetic acid] | 2000 to 20000 |
| O=C(O)CC1CCN(c2c(F)cc(-c3nc(Oc4ccc(F)cc4)cc(C(F)(F)F)n3)cc2F)CC1 [Example 619, (1-{2,6-difluoro-4-[4-(4-fluoro-phenoxy)-6-trifluoromethyl-pyrimidin-2-yl]-phenyl}-piperidin-4-yl)-acetic acid] | 2000 to 20000 |
| CCCOc1cccc(-c2cc(F)c(N3CCC(CCC(=O)O)CC3)c(F)c2)n1 [Example 620, 3-{1-[2,6-difluoro-4-(6-propoxy-pyridin-2-yl)-phenyl]-piperidin-4-yl}-propionic acid] | 200 to 2000 |
| O=C(O)CCC1CCN(c2c(F)cc(-c3cccc(C4CCC4)n3)cc2F)CC1 [Example 621, 3-{1-[4-(6-cyclobutyl-pyridin-2-yl)-2,6-difluoro-phenyl]-piperidin-4-yl}-propionic acid] | 200 to 2000 |
| CCOc1cccc(-c2cc(F)c(N3CCC(CCC(=O)O)CC3)c(F)c2)n1 [Example 622, 3-{1-[4-(6-ethoxy-pyridin-2-yl)-2,6-difluoro-phenyl]-piperidin-4-yl}-propionic acid] | 200 to 2000 |
